Values after ≈ are worked out from the molar mass of the structure shown.
Columns and labels:
[1] = Binding affinity to C-terminal 6His-tagged Escherichia coli UTI89 FmlH (1 to 160 residues) expressed in Escherichia coli C600 expression system assessed as dissociation constant by biolayer interferometry assay
Streptococcus mutans = assay: Prevention of Streptococcus mutans CLSM 001 adherence to sucrose-dependent glass surface at 1 to 2 mg/ml relative to control; assay type: functional; settings: dose 1-2 mg/ml
Lectin A = Lectin A (Photorhabdus laumondii subsp. laumondii, UniProt Q7N561); assay: Inhibition of Photorhabdus luminescens LecA expressed in Escherichia coli BL21(DE3) cells by fluorescence based analysis
Lectin A, sequence (Q7N561 whole entry): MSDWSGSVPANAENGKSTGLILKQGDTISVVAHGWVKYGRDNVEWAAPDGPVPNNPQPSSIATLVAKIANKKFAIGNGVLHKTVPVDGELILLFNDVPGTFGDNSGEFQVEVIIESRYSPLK

[2] = Downregulation of c-di-GMP level in Pseudomonas aeruginosa PA14 planktonic cells harboring wspF gene mutation at 10 uM incubated for 24 hrs by HPLC method; assay type: functional
Pseudomonas aeruginosa [3] = assay: Downregulation of c-di-GMP level in Pseudomonas aeruginosa PA14 harboring wspF gene mutation biofilm at 10 uM incubated for 24 hrs by HPLC method; assay type: functional
[4] = Antibiofilm activity against Pseudomonas aeruginosa PA14 cocultured with Staphylococcus aureus ATCC 6538 assessed as inhibition of biofilm formation incubated for 24 hrs by crystal violet staining based microtiter plate method relative to control; assay type: functional; design: scale not given: the % may be the effect or the level left
Sortase A [5] = biological target: T1, Sortase A (Staphylococcus aureus, UniProt Q9S446); assay: Inhibition of Staphylococcus aureus ATCC 6538p Sortase A protease expressed in Escherichia coli BL21 expression system using Dabcyl-QALPETGEE-Edans as substrate incubated for 1 hr by FRET assay
T1 sequence (Q9S446 whole entry): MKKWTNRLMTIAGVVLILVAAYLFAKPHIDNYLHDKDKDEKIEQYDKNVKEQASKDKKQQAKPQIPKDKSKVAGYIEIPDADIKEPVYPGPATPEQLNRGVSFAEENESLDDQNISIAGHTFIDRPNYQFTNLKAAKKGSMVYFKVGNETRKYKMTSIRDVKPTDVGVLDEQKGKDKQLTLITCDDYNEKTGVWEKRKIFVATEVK

Pseudomonas aeruginosa [6] = assay: Antibacterial activity against Pseudomonas aeruginosa PAO1 NCTC 10332 assessed as inhibition of biofilm formation incubated for 24 hrs by crystal violet staining based analysis; assay type: functional, organism-based; settings: PAO1 NCTC 10332, 24 h
Pseudomonas aeruginosa [7] = assay: Antibacterial activity against Pseudomonas aeruginosa PAO1 NCTC 10332 assessed as inhibition of biofilm dispersion incubated for 24 hrs by crystal violet staining based analysis; assay type: functional, organism-based; settings: PAO1 NCTC 10332, 24 h
Serratia marcescens = assay: Antibacterial activity against Serratia marcescens ATCC 27117 assessed as inhibition of biofilm formation at 50 ug/ml incubated for 24 hrs by crystal violet staining based analysis relative to control; assay type: functional; design: scale not given: the % may be the effect or the level left; settings: dose 50 µg/ml
Pseudomonas aeruginosa [8] = assay: Antibacterial activity against Pseudomonas aeruginosa PAO1 NCTC 10332 assessed as inhibition of biofilm formation at 100 ug/ml incubated for 24 hrs by crystal violet staining based analysis relative to control; assay type: functional; design: scale not given: the % may be the effect or the level left; settings: dose 100 µg/ml
[9] = biological target: T2, PA-I galactophilic lectin (Pseudomonas aeruginosa (strain ATCC 15692 / PAO1 / 1C / PRS 101 / LMG12228), UniProt Q05097); assay: Inhibition of FITC-labelled Pseudomonas aeruginosa LecA incubated for 1 hr by fluorescence based analysis
T2 sequence (Q05097 whole entry): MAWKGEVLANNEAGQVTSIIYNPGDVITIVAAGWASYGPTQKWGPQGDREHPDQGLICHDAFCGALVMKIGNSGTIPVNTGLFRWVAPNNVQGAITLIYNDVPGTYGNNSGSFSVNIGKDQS

Escherichia coli = assay: Antibiofilm activity against Escherichia coli UTI89 at 2.5 ug/ml incubated for 72 hrs by crystal violet staining based assay relative to control; assay type: functional; settings: dose 2.5 µg/ml
Porphyromonas gingivalis = assay: Antibacterial activity Porphyromonas gingivalis ATCC 33277 assessed as bacterial growth inhibition incubated for 24 hrs by broth dilution assay; assay type: functional
[10] = tested on: Aggregatibacter actinomycetemcomitans; assay: Antibacterial activity Actinobacillus actinomycetemcomitans ATCC 700685 assessed as bacterial growth inhibition incubated for 24 hrs by broth dilution assay; assay type: functional
Pseudomonas aeruginosa [11] = assay: Antibacterial activity against Pseudomonas aeruginosa MTCC 2488 biofilm at 410 ug/ml incubated for 24 hrs by congo red binding assay; assay type: functional; settings: dose 410 µg/ml
Pseudomonas aeruginosa [12] = assay: Potentiation of ciprofloxacin-induced antibacterial activity against Pseudomonas aeruginosa MTCC 2488 biofilm at 410 ug/ml incubated for 24 hrs pretreated with compound followed by ciprofloxacin addition by congo red binding assay; assay type: functional; settings: dose 410 µg/ml
Pseudomonas aeruginosa [13] = assay: Potentiation of tetracyclin-induced antibacterial activity against Pseudomonas aeruginosa MTCC 2488 biofilm at 410 ug/ml incubated for 24 hrs pretreated with compound followed by tetracyclin addition by congo red binding assay; assay type: functional; settings: dose 410 µg/ml
Sortase A [14] = biological target: T1, Sortase A; assay: Inhibition of Staphylococcus aureus ATCC 25904 Sortase A protease expressed in Escherichia coli BL21 expression system using Dabcyl-QALPETGEE-Edans as substrate incubated for 30 mins by FRET assay
Staphylococcus aureus = assay: Prevention of Staphylococcus aureus ATCC 25904 adherence to fibrinogen at 64 ug/ml by crystal violet staining based analysis relative to control; assay type: functional; settings: dose 64 µg/ml

## O=C(O)C[C@H]1[C@@H](Oc2ccccc2[N+](=O)[O-])O[C@H](CO)[C@H](O)[C@@H]1O
[1]
  Kd: 10.6 µM

## O=c1c(O[C@@H]2OC[C@H](O)[C@H](O)[C@H]2O)c(-c2ccc(O)c(O)c2)oc2cc(O)cc(O)c12 [GUAJAVERIN]
Streptococcus mutans
  Activity: 83.7%

## OC[C@H]1O[C@H](OC[C@H]2O[C@H](O[C@]3(CO)O[C@H](CO)[C@@H](O)[C@@H]3O)[C@H](O)[C@@H](O)[C@@H]2O)[C@H](O)[C@@H](O)[C@H]1O [RAFFINOSE]
Lectin A
  IC50: 110 µM
[2]
  Activity: 47%
Pseudomonas aeruginosa [3]
  Activity: 59%
[4]
  Activity: 23%

## CC[C@H](CCC(C)[C@H]1CC[C@H]2[C@@H]3CCC4C[C@@H](O[C@@H]5O[C@H](CO)[C@@H](O)[C@H](O)[C@H]5O)CC[C@]4(C)[C@H]3CC[C@]12C)C(C)C (stereo not given in full)
Sortase A [5]
  IC50: 31.6 µM

## CCCCCCC[C@H](CC(=O)N1CCOCC1)OC(=O)C[C@@H](CCCCCCC)O[C@@H]1O[C@@H](C)[C@H](O)[C@@H](O)[C@H]1O[C@@H]1O[C@@H](C)[C@H](O)[C@@H](O)[C@H]1O
Pseudomonas aeruginosa [6]
  IC50: 12.5 µg/mL (≈ 0.0174 mM)
Pseudomonas aeruginosa [7]
  IC50: 10 µg/mL (≈ 0.0139 mM)
Serratia marcescens
  Activity: >80%
Pseudomonas aeruginosa [8]
  Activity: 90%

## OC[C@H]1O[C@@H](OCc2cn([C@H]3[C@H](O)[C@@H](O)[C@H](c4cn([C@H]5[C@H](O)[C@@H](O)[C@H](n6cc([C@@H]7O[C@H](CO)[C@@H](n8cc(CO[C@@H]9O[C@H](CO)[C@H](O)[C@H](O)[C@H]9O)nn8)[C@H](O)[C@H]7O)nn6)O[C@@H]5CO)nn4)O[C@@H]3CO)nn2)[C@H](O)[C@@H](O)[C@H]1O
[9]
  IC50: 0.028 µM

## CC(=O)O[C@@H]1[C@@H](O)[C@@H](O)[C@H](O[C@@H]2[C@@H](O)[C@H](OCCc3ccc(O)c(O)c3)O[C@H](CO)[C@H]2OC(=O)/C=C/c2ccc(O)c(O)c2)O[C@H]1C
Escherichia coli
  Activity: 77%

## C[C@@H]1O[C@@H](O[C@H]2[C@H](Oc3cc(O)c4c(c3)O[C@H](c3ccc(O)cc3)CC4=O)O[C@H](CO)[C@@H](O)[C@@H]2O)[C@H](O)[C@H](O)[C@H]1O [NARINGIN]
Porphyromonas gingivalis
  MIC50: 9800 µg/mL (≈ 16.9 mM)
[10]
  MIC50: 9800 µg/mL (≈ 16.9 mM)
Pseudomonas aeruginosa [11]
  Activity: 49.5%
Pseudomonas aeruginosa [12]
  Activity: 89.35%
Pseudomonas aeruginosa [13]
  Activity: 73.76%

## C[C@H]1O[C@@H](Oc2c(-c3ccc(O)c(O)c3)oc3cc(O)cc(O)c3c2=O)[C@H](O)[C@H](O)[C@H]1O
Sortase A [14]
  IC50: 71.4 µM
Staphylococcus aureus
  Activity: 51.9%

From ChEMBL document CHEMBL5137057, “Small Carbohydrate Derivatives as Potent Antibiofilm Agents” (J Med Chem, 2022)
